# Assay results taken from patent US9113629B2, “4-amino-6-(4-substituted-phenyl)-picolinates and 6-amino-2-(4-substituted-phenyl)-pyrimidine-4-carboxylates and their use as herbicides” (DOW AGROSCIENCES LLC, priority 2013, dated 2015).
# Where two headings read alike, the source gives them in different places.
# Experiments:
# [1] = test system: Key Broadleaf Weed and Crop Species; assay: Post-emergent Test II herbicidal activity (Table 5); assay type: in vivo; conditions: post-emergence, 336 h, 14 days after application; for pest or weed control at 70 g/ha: application rate 70 g ai/ha; for pest or weed control at 140 g/ha: application rate 140 g ai/ha
# Method in brief: (§1)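 Test species were raised 7–21 d under greenhouse conditions until reaching the first or second true leaf, sprayed with formulated compound at 187 L/ha, and kept subirrigated to avoid wash-off. Fourteen days later, damage was rated visually on a 0–100% scale against untreated plants.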
# [2] = test system: Key Grass and Sedge Weeds as well as Grass Crops; assay: Post-emergent Test II herbicidal activity (Table 6); assay type: in vivo; conditions: post-emergence, 336 h; for pest or weed control at 70 g/ha: 70 g ai/ha; for pest or weed control at 140 g/ha: 140 g ai/ha
# Method in brief: as §1
# [3] = ABUTH: velvetleaf (Abutilon theophrasti), read-out: Visual Growth Reduction (%) 14 Days After Application, ABUTH
# [4] = AMARE: redroot pigweed (Amaranthus retroflexus), read-out: Visual Growth Reduction (%) 14 Days After Application, AMARE
# [5] = BRSNN: oilseed-rape, canola (Brassica napus), read-out: Visual Growth Reduction (%) 14 Days After Application, BRSNN
# [6] = CHEAL: lambsquarters (Chenopodium album), read-out: Visual Growth Reduction (%) 14 Days After Application, CHEAL
# [7] = EPHHL: wild poinsettia (Euphorbia heterophylla), read-out: Visual Growth Reduction (%) 14 Days After Application, EPHHL
# [8] = HELAN: sunflower (Helianthus annuus), read-out: Visual Growth Reduction (%) 14 Days After Application, HELAN
# [9] = VIOTR: wild pansy (Viola tricolor), read-out: Visual Growth Reduction (%) 14 Days After Application, VIOTR
# [10] = CYPES: yellow nutsedge (Cyperus esculentus), read-out: Visual Growth Reduction (%) 14 Days After Application, CYPES
# [11] = DIGSA: crabgrass (Digitaria sanguinalis), read-out: Visual Growth Reduction (%) 14 Days After Application, DIGSA
# [12] = ECHCG: barnyardgrass (Echinochloa crus-galli), read-out: Visual Growth Reduction (%) 14 Days After Application, ECHCG
# [13] = ORYSA: rice (Oryza sativa), crop, read-out: Visual Growth Reduction (%) 14 Days After Application, ORYSA
# [14] = SETFA: giant foxtail (Setaria faberi), read-out: Visual Growth Reduction (%) 14 Days After Application, SETFA
# [15] = SORVU: grain sorghum (Sorghum vulgare), read-out: Visual Growth Reduction (%) 14 Days After Application, SORVU
# [16] = TRZSS (wheat, Triticum aestivum), crop, read-out: Visual Growth Reduction (%) 14 Days After Application, TRZSS
# [17] = ZEAMX: maize, corn (Zea mays), crop, read-out: Visual Growth Reduction (%) 14 Days After Application, ZEAMX
smiles,measurement,setting,value
COC(=O)c1nc(-c2ccc(F)c(F)c2F)c(F)c(N)c1Cl [Compound 186],pest or weed control at 70 g/ha,[1]; [3],95 to 100%
same,pest or weed control at 140 g/ha,[1]; [3],95 to 100%
same,pest or weed control at 70 g/ha,[1]; [4],95 to 100%
same,pest or weed control at 140 g/ha,[1]; [4],95 to 100%
same,pest or weed control at 70 g/ha,[1]; [5],85 to 94%
same,pest or weed control at 140 g/ha,[1]; [5],95 to 100%
same,pest or weed control at 70 g/ha,[1]; [6],95 to 100%
same,pest or weed control at 140 g/ha,[1]; [6],95 to 100%
same,pest or weed control at 70 g/ha,[1]; [7],95 to 100%
same,pest or weed control at 140 g/ha,[1]; [7],95 to 100%
same,pest or weed control at 70 g/ha,[1]; [8],85 to 94%
same,pest or weed control at 140 g/ha,[1]; [8],95 to 100%
same,pest or weed control at 70 g/ha,[1]; [9],85 to 94%
same,pest or weed control at 140 g/ha,[1]; [9],95 to 100%
same,pest or weed control at 70 g/ha,[2]; [10],85 to 94%
same,pest or weed control at 140 g/ha,[2]; [10],85 to 94%
same,pest or weed control at 70 g/ha,[2]; [11],45 to 59%
same,pest or weed control at 140 g/ha,[2]; [11],60 to 74%
same,pest or weed control at 70 g/ha,[2]; [12],85 to 94%
same,pest or weed control at 140 g/ha,[2]; [12],95 to 100%
same,pest or weed control at 70 g/ha,[2]; [13],0 to 29%
same,pest or weed control at 140 g/ha,[2]; [13],30 to 44%
same,pest or weed control at 70 g/ha,[2]; [14],0 to 29%
same,pest or weed control at 140 g/ha,[2]; [14],60 to 74%
same,pest or weed control at 70 g/ha,[2]; [15],60 to 74%
same,pest or weed control at 140 g/ha,[2]; [15],75 to 84%
same,pest or weed control at 70 g/ha,[2]; [16],60 to 74%
same,pest or weed control at 140 g/ha,[2]; [16],60 to 74%
same,pest or weed control at 70 g/ha,[2]; [17],75 to 84%
same,pest or weed control at 140 g/ha,[2]; [17],85 to 94%
same,melting point,,147 to 148 °C
